Measured values as given in US20240408073A1, “METHODS FOR TREATING A TRAUMA PATIENT” (Beth Israel Deaconess Medical Center, Inc., priority 2021, published 2024).

Columns and labels:
PMN [1] = assay: PMN CTX (chemotaxis) transwell assay; format: cell-based, human
Description: Human PMN were isolated from freshly withdrawn peripheral blood of healthy volunteers, as described previously. In brief, heparinized whole blood (10 U/ml) was centrifuged at 200×g for 10 min. The buffy coat and RBC were layered onto 1-Step Polymorphs (AN221725, Accurate Chemical & Scientific Corp, Carle Place, NY, USA), followed by centrifugation at 500×g for 30 min. The PMN layer was collected and diluted with an equal volume of 0.45% NaCl to restore osmolarity for 5 min at room temperature. The suspensions were then washed in RPMI 1640 and centrifuged at 200×g for 10 min. RBC in pellet were lysed with ice-cold 0.2% NaCl for 20 sec and the same volume of 1.6% NaCl was applied to end lysis. Cells were centrifuged again at 200×g for 10 min to collect PMN. PMN were resuspended in physiological solutions depending on the next functional study.
CTX assay PMN CTX was studied in […]. 1×10^5 PMN in 75 μL of RPMI with 2% heat-inactivated FBS were applied to the upper chamber and 150 μL of the same media containing indicated chemoattractants were applied to the lower chamber. mtDNA application was done at RT, rotating for 15 min. […] Cells were incubated (37° C., 5% CO2) for 60 min. PMN were then collected from the lower chambers, centrifuged (500×g, 5 min, RT) and re-suspended in 200 μL of cell lysis solution (×1/20) with CyQUANT GR dye (×1/400) in water for 15 min at RT (C7026, Thermo Fisher Scientific). PMN numbers were evaluated in 96-well plates using 480 nm excitation and 520 nm emission with known numbers of PMN for standard curve.

cortactin = assay: Western blot of acetylated cortactin in PMN; format: cell-based, human; details: PAR in conjunction with mtDNA; FIG. 3H
Description: Briefly, PMN samples were dissolved in Pierce RIPA lysis buffer (25 mM Tris HCl pH 7.6, 150 mM NaCl, 1% NP-40, 1% sodium deoxycholate, 0.1% SDS) (Thermo Fisher Scientific, Waltham, MA, USA) containing Halt Protease & Phosphatase Inhibitor Cocktail (Thermo Fisher Scientific) for 20 min on ice, followed by centrifugation at […] for 20 min at 4° C. Then, the supernatant was collected, concentration was measured using a Pierce BCA Protein Assay Kit (Thermo Fisher Scientific). After mixing and boiling (95° C., 10 min) protein lysate with appropriate amount of 6×Laemmli SDS-sample buffer (J61337, Alfa Aesar, Tewksbury, MA, USA) according to the protein concentration, 40 μg of protein lysates were separated by SDS/PAGE and transferred to nitrocellulose membranes contained in an iBlot Transfer Stack kit (IB301002, Thermo Fisher Scientific). […] After being incubated with their appropriate secondary antibodies conjugated with horseradish peroxidase (HRP) the following day, the immunoblot signals were detected by application of the Amersham ECL Prime Western Blotting Detection Reagent kit (Cytiva, Marlborough, MA, USA) in a ChemiDoc Imaging System (Bio-Rad, Hercules, CA, USA). Quantification of blots were performed using Image J v.1.53i (National Institute of Health, Bethesda, MD, USA).

human PMN [2] = assay: Bacterial phagocytosis assay by flow cytometry; format: cell-based; details: drug 30 min, then mtDNA 15 min; FIG. 4A
human PMN [3] = assay: Bacterial phagocytosis assay by colony-forming unit (CFU) count; format: cell-based; details: drug 30 min, then mtDNA 15 min; for PMN uptake of Sa in co-culture suppressed by mtDNA (PMN lysis/agar plate): FIG. 4B; for Sa killing / clearance of Sa from co-culture media suppressed by mtDNA: FIG. 4C
Description: Before the CFU count of bacteria, Staphylococcus aureus (Sa) were opsonized with autologous serum from the PMN donor. OD600=0.1 were determined as 10^8 CFU/mL according to previous measurements. […] Then, Sa were incubated with PMN at 1:1 ratio in 1 mL 0.9% NaCl supplemented with human serum for 30 min rotating. […] The supernatant was collected separately, centrifuged at 5000×g for 10 min to pellet bacteria. The bacteria were applied on agar plates and after 18 hrs the bacterial colonies were counted.

human PMN [4] = assay: Actin polymerization assay by rhodamine phalloidin staining; format: cell-based; details: FIG. 5
Description: Actin polymerization was studied using an F-Actin Visualization Biochem Kit (Cytoskeleton, Inc., Denver, CO, USA) according to the manufacturer's instructions. Briefly, PMN were applied to glass slides (Thermo Fisher Scientific) pre-coated with 0.1% poly-L-lysine solution ([…], MilliporeSigma) in H2O. Then 200 μL of Fixative solution was added to the slides and incubated for 10 min at RT. After washing with 200 μL of Wash buffer for 30 sec at RT, 200 μL of Permeabilization Buffer was added to the slides and incubated for 5 min at RT. Then, the cells were stained with rhodamine phalloidin for 30 min at RT in dark. The slides were then washed with Wash buffer and Hoechst 33342 (1:1,000 in PBS) was applied to stain nucleus. Followed by 3 times of washing, 20 μL of Mounting medium was added to the center of each slide and a coverslip was put on. Clear nail polish was used to seal coverslips. The actin filaments were observed using AxioImager Epifluorescence Microscope (Zeiss, Jena, Germany) at excitation 535 nm and emission 585 nm.

Staphylococcus aureus = assay: Mouse trauma (laparotomy + liver crush) plus intratracheal Staphylococcus aureus lung infection; format: in vivo, CD-1 mice; details: PAR 20 mg/kg
Description: Following 48 hr acclimatization, 8-9 week-old male CD-1 mice (body weight 30-32 g) underwent laparotomy followed by crushing of the left lobe of liver 8 times using a sterile forceps. […] Mice were sacrificed 18 h later and bronchoalveolar lavage (BAL) fluid (BALF) was collected by tracheal irrigation with 1 mL of PBS. The collected BALF was centrifuged; the pellet was diluted to count the number of immune cells; and the supernatant was then separated and applied to agar plates to count the remaining bacteria. Experiments were repeated as noted and data were combined.

PMN [5] = assay: PMN respiratory burst in trauma patient plasma; format: cell-based, human; details: FIG. 9E
PMN [6] = assay: NETosis of PMN incubated with trauma plasma, induced by PMA; format: cell-based, human; details: post-treatment 30 min after plasma, FIG. 9F
[7] = system: Formyl Peptide Receptor-1 (FPR1); assay: Flow cytometry for surface expression of FPR1 on human PMN; format: cell-based; details: FIG. 9G
Description: Finally, PMN were incubated with fluorescein (FITC)-conjugated anti-human FPR1 antibody (FAB3744F, LifeSpan BioSciences Inc., Seattle, WA), phycoerythrin (PE)-conjugated anti-human CXCR2 antibody (FAB331P, LifeSpan BioSciences Inc.), or PE-conjugated anti-human BLT1 antibody (FAB099P, LifeSpan BioSciences Inc.) in the dark for 30 min at room temperature. FITC-conjugated isotype antibody (400210, BioLegend, San Diego, CA) or PE-conjugated isotype antibody (400212, BioLegend) was used as a negative control. Allophycocyanin (APC)—conjugated anti-human CD16 antibody (360705, BioLegend) was used to confirm PMN identification.

[8] = cited from earlier work; for Drug-drug interactions: VAL with PAR, clinical settings; for Bioavailability: both by parenteral and enteral routes
HDAC6 = biological target: T1, HDAC6 (Homo sapiens, UniProt Q9UBN7); assay: HDAC6 activation
T1 construct: endogenous in cells; host or cells: PMN
T1 sequence (Q9UBN7 1-1215): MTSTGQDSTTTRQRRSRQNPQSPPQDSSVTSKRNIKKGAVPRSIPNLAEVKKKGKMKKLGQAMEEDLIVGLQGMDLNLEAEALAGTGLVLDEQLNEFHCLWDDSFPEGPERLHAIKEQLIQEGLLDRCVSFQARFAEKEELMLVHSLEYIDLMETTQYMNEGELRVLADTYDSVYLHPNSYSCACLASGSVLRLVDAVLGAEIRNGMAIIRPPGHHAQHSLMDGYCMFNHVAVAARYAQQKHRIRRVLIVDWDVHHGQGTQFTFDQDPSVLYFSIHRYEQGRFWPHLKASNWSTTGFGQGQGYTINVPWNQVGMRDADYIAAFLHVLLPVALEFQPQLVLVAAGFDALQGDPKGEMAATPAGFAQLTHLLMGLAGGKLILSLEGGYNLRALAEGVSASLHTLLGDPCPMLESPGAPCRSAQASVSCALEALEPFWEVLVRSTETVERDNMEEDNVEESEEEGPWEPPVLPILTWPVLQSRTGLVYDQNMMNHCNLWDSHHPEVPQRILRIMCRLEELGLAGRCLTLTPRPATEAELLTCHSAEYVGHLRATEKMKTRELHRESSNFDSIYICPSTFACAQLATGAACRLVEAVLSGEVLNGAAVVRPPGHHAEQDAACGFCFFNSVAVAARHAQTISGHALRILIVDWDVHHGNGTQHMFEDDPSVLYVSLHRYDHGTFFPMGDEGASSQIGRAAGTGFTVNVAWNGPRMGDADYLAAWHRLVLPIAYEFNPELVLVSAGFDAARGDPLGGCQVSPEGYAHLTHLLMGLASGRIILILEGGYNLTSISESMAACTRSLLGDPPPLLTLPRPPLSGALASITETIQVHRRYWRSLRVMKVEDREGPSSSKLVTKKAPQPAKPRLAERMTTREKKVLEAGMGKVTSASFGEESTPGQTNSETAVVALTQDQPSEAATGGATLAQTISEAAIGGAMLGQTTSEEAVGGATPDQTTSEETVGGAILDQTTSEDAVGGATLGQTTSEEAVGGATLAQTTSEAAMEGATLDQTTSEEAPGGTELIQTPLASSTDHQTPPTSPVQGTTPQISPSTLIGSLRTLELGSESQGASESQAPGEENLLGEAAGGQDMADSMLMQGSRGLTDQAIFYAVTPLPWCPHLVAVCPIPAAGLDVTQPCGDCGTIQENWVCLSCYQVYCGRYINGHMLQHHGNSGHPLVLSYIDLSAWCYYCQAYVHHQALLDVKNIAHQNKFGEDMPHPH

[9] = inhibitor 30 min prior to mtDNA, N=6

Compound | mtDNA-induced suppression of PMN CTX to GRO-α (PMN [1]; [9]) | mtDNA-induced suppression of PMN CTX to LTB4 (PMN [1]; [9]) | Suppression of PMN CTX to LTB4 after ND6 exposure (PMN [1]; N=6) | Acetylated cortactin (ac-cortactin) level (cortactin) | Phagocytosis of SYTO9 labeled Staphylococcus aureus by human PMN suppressed by mtDNA (flow cytometry) (human PMN [2]) | PMN uptake of Sa in co-culture suppressed by mtDNA (PMN lysis/agar plate) (human PMN [3]) | Sa killing / clearance of Sa from co-culture media suppressed by mtDNA (human PMN [3]) | F-actin polymerization response to LTB4 inhibited by mtDNA (human PMN [4]) | Lung bacterial clearance (Sa CFU in BAL, % of uninjured controls) (Staphylococcus aureus; post-treatment i.p. 30 min post-injury, VPA 80 mg/kg, alone or combined) | Lung bacterial clearance (Sa CFU in BAL) (Staphylococcus aureus; pre-treatment i.p. 30 min prior to injury, Sa i.t. 4 h after trauma) | PMN respiratory burst (RB) suppressed by trauma plasma (PMN [5]; post-treatment) | PMN respiratory burst (RB) suppressed by trauma plasma (PMN [5]; pre-treatment) | NET formation (NETosis) suppressed by trauma plasma (PMN [6]) | FPR1 surface expression suppressed by ND6 [7] | Drug-drug interactions [8] | Bioavailability [8] | PMN CTX in the presence of mtDNA (PMN [1]) | Activation of HDAC6 (HDAC6) | T1/2 of elimination ([8]; human, in vivo) | Suppressive effect of mtDNA on PMN chemotaxis (PMN [1]; FIG. 1B, dependence on endosomal acidification)
COC(=O)c1ccc(C=Cc2ccc([N+](=O)[O-])o2)o1 [GRKi, methyl 5-[2-(5-nitro-2-furyl)vinyl]-2-furoate] | rescued | rescued |  |  |  |  |  |  |  |  |  |  |  |  |  |  |  |  |  | 
Fc1ccc([C@@H]2CCNC[C@H]2COc2ccc3c(c2)OCO3)cc1 [PAR, paroxetine] |  | rescued | rescued | blocks mtDNA suppression of ac-cortactin | restored phagocytosis | restored phagocytosis | restored Sa killing | rescued | did not confer significant protection | significantly prevented infection | ineffective | can rescue RB | minor reversals | diminish FPR1 regulation by ND6 | no drug-drug interactions | excellent |  |  |  | 
CCCC(CCC)C(=O)O [VPA, valproic acid] |  |  |  |  | reverse mtDNA-mediated suppressive effects on bacterial phagocytosis and killing | reverse mtDNA-mediated suppressive effects on bacterial phagocytosis and killing | reverse mtDNA-mediated suppressive effects on bacterial phagocytosis and killing | rescued |  |  | ineffective |  | minor reversals | diminish FPR1 regulation by ND6 | no drug-drug interactions | excellent | rescued | blocks activation of HDAC6 | 8 to 17 h | 
CCN(CC)CCCC(C)Nc1ccnc2cc(Cl)ccc12 (stereo not drawn) [CQ, chloroquine] |  |  |  |  |  |  |  |  |  |  |  |  |  |  |  |  |  |  |  | blocked
